# Experimental data: paper PMC5617480 (Oncotarget, 2017)
# Key:
# A549 cells = system: A549 cells; parameters: method as in earlier work; conditions: A549, 48 h; ref [1]; cited from earlier work
# HeLa cells = system: HeLa cells; parameters: method as in earlier work; conditions: 48 h, ref [1]; cited from earlier work
# c-kit-2 = system: c-kit-2; parameters: method as in earlier work; conditions: ref [1], cited from earlier work; for ctDNADC50/c-kit-2DC50: FID selectivity ratio; for c-kit-2DC50: FID
# Pu27 G4 = assay: Fluorescence titration (Stern-Volmer quenching); format: binding; conditions: Pu27 G4-DNA, compound 20 μM, 100 mM K+
# Method: We asked whether chiral platinum(II) complexes 4–6 have the ability to bind to G-quadruplex DNA. To address this, FRET assays, CD spectroscopy, G4-FID assays, and fluorescence titration analysis were performed. […] For G4-HTG21, the ^G4DC50 values of complexes 4–6 were 1.23, 1.26 and 0.99 μM, respectively; while, for G4-Pu27, the ^G4DC50 values were 1.01, 0.89, and 0.82 μM, respectively. In addition, the ^ctDNADC50/^G4DC50 ratio of the HTG21 and Pu27 G4s treated with complexes 4–6 was in the range of 50.54-90.65 and 71.56-110.67 folds, respectively. To further evaluate the binding ability of complexes 4–6 to Pu27 and HTG21G4s, CD spectroscopy and fluorescence titration analysis were performed. […] The quenching ability of complexes 4–6 to HTG21 and Pu27 G4 DNA fluorescence can be quantitatively estimated by their respective quenching constant (Kq), which was derived from the Stern-Volmer quenching equation. […] Finally, the selective binding of complexes 4–6 towards G4 DNA was analyzed by FRET-melting assays. […] In contrast, the ΔTm value for the F32T+H20M duplex DNA in the presence of complexes 4–6 was 1.18, 1.34, and 0.78 °C under the same conditions (Figure 4A). Altogether, our data indicated complexes 4–6, especially complex 6, is the best binder to G4 DNA, which caused DNA complex displaying the highest thermodynamic stability.
# Supplementary Figure 26: Fluorescence emission spectra of compounds (20 μM) in 100 mM K+ solution in the absence and
# presence of G-quadruplex Pu27 with 4 (A), 5 (B) and 6 (C), respectively. […]
# telomerase = target: T1, telomerase (Homo sapiens, UniProt O14746); assay: TRAP assay (TRAP-silver staining assay); format: biochemical; conditions: BEL-7404 cells, 10 μM, 24 h
# T1 construct: Each telomerase extract was prepared from BEL-; endogenous in cells; host or cells: BEL-7404 cell extract
# T1 sequence (O14746 whole entry): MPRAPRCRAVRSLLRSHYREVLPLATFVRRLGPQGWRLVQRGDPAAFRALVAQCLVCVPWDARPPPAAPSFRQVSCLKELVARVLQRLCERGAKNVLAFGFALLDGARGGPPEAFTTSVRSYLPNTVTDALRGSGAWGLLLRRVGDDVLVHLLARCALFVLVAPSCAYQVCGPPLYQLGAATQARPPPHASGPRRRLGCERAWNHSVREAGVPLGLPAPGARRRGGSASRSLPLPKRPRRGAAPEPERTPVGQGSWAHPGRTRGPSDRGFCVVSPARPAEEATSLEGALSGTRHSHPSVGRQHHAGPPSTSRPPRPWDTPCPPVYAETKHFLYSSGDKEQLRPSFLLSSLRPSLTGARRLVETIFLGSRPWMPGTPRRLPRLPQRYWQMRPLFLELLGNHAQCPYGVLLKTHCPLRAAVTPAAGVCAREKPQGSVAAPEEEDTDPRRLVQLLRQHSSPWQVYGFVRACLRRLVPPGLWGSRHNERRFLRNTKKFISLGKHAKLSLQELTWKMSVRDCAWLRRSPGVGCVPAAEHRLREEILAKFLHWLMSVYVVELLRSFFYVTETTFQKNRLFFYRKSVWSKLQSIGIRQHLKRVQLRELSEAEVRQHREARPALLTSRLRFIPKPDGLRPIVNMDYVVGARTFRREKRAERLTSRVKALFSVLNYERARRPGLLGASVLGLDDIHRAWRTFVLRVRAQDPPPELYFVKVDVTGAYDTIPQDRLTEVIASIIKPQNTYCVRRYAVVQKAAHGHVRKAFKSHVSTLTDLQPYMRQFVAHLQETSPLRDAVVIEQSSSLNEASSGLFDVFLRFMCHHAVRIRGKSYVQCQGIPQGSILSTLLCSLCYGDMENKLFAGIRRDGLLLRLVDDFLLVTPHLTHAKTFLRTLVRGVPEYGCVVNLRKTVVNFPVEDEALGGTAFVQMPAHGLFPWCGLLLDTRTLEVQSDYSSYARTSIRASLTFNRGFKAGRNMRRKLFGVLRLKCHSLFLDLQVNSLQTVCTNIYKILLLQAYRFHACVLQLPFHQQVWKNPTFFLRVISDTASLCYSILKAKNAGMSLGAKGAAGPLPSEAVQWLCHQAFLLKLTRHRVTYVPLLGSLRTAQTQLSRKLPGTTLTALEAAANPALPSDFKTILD
# T1 sequence (O60832 whole entry partner): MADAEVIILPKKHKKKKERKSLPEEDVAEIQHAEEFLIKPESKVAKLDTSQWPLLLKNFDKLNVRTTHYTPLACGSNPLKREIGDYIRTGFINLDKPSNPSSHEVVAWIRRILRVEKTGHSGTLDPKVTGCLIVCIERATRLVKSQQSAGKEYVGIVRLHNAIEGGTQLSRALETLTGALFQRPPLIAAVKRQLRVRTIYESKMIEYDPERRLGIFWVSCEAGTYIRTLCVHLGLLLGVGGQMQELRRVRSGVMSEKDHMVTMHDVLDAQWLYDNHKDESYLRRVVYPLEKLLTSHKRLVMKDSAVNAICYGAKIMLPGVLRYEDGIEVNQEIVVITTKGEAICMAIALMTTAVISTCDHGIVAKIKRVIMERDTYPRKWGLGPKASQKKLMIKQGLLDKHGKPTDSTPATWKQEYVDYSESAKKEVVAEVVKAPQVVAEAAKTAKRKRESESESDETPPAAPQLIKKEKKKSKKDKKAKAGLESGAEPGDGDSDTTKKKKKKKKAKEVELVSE
# T1 sequence (Q9NPE3 whole entry partner): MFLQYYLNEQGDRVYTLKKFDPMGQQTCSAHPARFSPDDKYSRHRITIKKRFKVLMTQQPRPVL
# T1 sequence (Q9NX24 whole entry partner): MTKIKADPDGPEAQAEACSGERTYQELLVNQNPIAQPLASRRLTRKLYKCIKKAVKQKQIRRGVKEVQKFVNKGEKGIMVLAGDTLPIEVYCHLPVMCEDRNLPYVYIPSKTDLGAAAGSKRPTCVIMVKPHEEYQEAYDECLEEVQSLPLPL
# T1 sequence (Q9NY12 whole entry partner): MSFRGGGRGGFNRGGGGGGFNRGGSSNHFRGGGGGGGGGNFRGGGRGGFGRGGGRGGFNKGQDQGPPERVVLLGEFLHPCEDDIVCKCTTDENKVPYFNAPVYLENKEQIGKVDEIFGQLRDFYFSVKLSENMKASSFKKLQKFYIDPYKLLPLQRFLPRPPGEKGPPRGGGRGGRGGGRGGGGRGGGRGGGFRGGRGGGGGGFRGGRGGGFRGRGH
# T1 sequence (Q9BUR4 whole entry partner): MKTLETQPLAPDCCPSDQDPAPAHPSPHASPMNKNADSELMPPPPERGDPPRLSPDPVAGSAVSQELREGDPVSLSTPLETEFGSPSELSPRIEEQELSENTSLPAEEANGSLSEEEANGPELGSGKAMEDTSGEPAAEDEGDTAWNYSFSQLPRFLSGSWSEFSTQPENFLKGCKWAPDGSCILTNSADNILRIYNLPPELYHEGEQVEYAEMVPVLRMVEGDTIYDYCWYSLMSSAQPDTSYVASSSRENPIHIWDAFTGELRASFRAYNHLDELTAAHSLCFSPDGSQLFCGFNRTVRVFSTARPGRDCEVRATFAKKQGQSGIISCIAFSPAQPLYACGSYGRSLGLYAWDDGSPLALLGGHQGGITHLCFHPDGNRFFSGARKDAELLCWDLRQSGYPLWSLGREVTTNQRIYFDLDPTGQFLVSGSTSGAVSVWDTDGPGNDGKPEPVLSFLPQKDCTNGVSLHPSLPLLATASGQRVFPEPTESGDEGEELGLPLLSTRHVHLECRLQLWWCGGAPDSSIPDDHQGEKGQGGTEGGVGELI
# From the text: As mentioned above, G4s structures widely exist in telomeres, we therefore monitored the effect of chiral platinum(II) complexes on function and activity of telomerase. To address this, we first determined the effect of complexes 4–6 on the expression of some telomeric DNA-associated proteins. […] We next evaluated the activity of telomerase by TRAP assay.
# Apoptosis analysis c-myc antibody, or anti-β-actin primary antibody and the Apoptosis was detected by flow cytometric analysis corresponding secondary antibody were used to detect of annexin V staining. Annexin V-FITC vs PI assay was target protein via standard washing and incubating steps. performed as previously described. Briefly, adherent Senescence induction and selective binding to NEL-7404 cells were harvested and suspended in the G4s by 4–6 in BEL-7404 cells annexin-binding buffer (5×10^5 cells/mL). Then, cells were incubated with annexin V-FITC and PI for 1.0 h at Staining for SA-β-Gal activity was carried out room temperature in the dark and immediately analyzed according to Moore and Chen reports. In brief, by flow cytometry. The data are presented as biparametric After the long-term incubation with complexes 4–6, the dot plots showing PI red fluorescence vs annexin V-FITC growth medium was aspirated and the BEL-7404 cells green fluorescence. were fixed in 2% formaldehyde/0.2% glutaraldehyde for 15.0 min at room temperature. […] Finally, the extraction, RT-PCR, and the selective binding to G4s by BEL-7404 cell cycle was determined with FACS Calibur complexes 4–6 was according to the our previous reported flow cytometer (BD) and analyzed using Cell Quest.
# (BDIS) and ModFit LT (Verity Software House, Topsham, ME). Gene expression by a panel of genes for RT-Determination of caspase-3/9 activity by flow qPCR array cytometric analysis Differential expression of telomeres/telomerase-related genes was analyzed using the Telomeres & […]
Compound,IC50 (A549 cells) [µM],IC50 (HeLa cells) [µM],ctDNADC50/c-kit-2DC50 (c-kit-2),c-kit-2DC50 (c-kit-2) [µM],Extent of quenching (%) (Pu27 G4),"Kq (quenching constant, Stern-Volmer) (Pu27 G4)",inhibitory ratio of telomerase activity (telomerase) [%]
"O=C(NCC(O)CO)c1cnc2c3c(cccc13)-c1ccccc1C2=O.[Cl-].[Cl-].[Pt+2] (racemic) [ligand 1, R/S-(±)-FOA]",20.2 ± 0.5,25.7 ± 2.2,< 0.64,> 100,,,
"O=C(NC[C@@H](O)CO)c1cnc2c3c(cccc13)-c1ccccc1C2=O.[Cl-].[Cl-].[Pt+2] [ligand 2, R-(+)-FOA]",24.1 ± 0.4,28.5 ± 0.3,< 0.40,> 100,,,
"O=C(NC[C@H](O)CO)c1cnc2c3c(cccc13)-c1ccccc1C2=O.[Cl-].[Cl-].[Pt+2] [ligand 3, S-(–)-FOA]",20.4 ± 0.3,22.9 ± 0.7,3.92,22.94,,,
cis-[PtCl2(R-(+)-FOA)] [complex 5],,,,,30.06,8.80×10^4 L·mol–1,23.35
cis-[PtCl2(R/S-(±)-FOA)] [complex 4],,,,,32.54,1.02×10^5 L·mol–1,63.03
cis-[PtCl2(S-(–)-FOA)] [complex 6],,,,,40.31,1.38×10^5 L·mol–1,67.82
